Assay results taken from patent US9963475B2, “Anthracene-9, 10-dione dioxime compound prodrugs and their uses” (Beta Cat Pharmaceuticals, Inc., priority 2015, dated 2018).
Counter-ions that a name gives are not always drawn. Like-named read-outs stand apart in the source and are kept apart here. Blank lines part the entries; values can stand above or below the compound they belong to.

What was measured:
[1] = Stability assay in buffer (pH 1 and pH 6), LC-MS/MS; assay type: physicochemical
Method: (§1) A stock solution of the compound will be prepared in dimethylsulfoxide (DMSO) at 10 mM concentration. This stock solution will be serially diluted in DMSO to get stock solutions of 5, 2.5, 1.25, 0.625, 0.312, 0.156, and 0.078 mM. Working solutions of compound at a range of concentrations (100, 50, 25, 12.5, 6.25, 3.12, 1.56, and 0.78 μM) will be prepared in different buffers (pH 1 and 6).
(§2) In a 100 mL bottle, 33.5 mL of 0.2 M hydrochloric acid solution will be added to 12.5 mL of 0.2 M potassium chloride solution and diluted to […] with Milli-Q® water. The pH of the buffer solution will be adjusted to 1.0 with 0.2 M HCl solution and finally, volume will be made to 100 mL with Milli-Q® water.
(§3) In a 100 mL bottle, 6.15 mL of 0.2 M disodium hydrogen phosphate (dibasic) and 43.85 mL of 0.2 M sodium dihydrogen phosphate (monobasic) solution will be added. The pH of the buffer solution will be adjusted to 6.0 using the phosphate solutions. The volume will be made to 100 mL with Milli-Q® water.
The study will be performed in a 96-well deep well plate by spiking 10 μL of stock solutions into 990 μL buffer and 100 μL aliquots will be withdrawn at 0 and 120 min. The aliquots will be collected in centrifuge tubes containing 100 μL of acetonitrile. To the quenched samples, internal standard will be added and they will be taken for analysis using LC-MS/MS spectrometry. The experiments will be performed in duplicate in an orbital shaker maintained at 37° C. at 60 rpm.
(§4) The samples will be analysed for BC3005 using a fit-for-purpose LC-MS/MS method. If the sample concentration is above upper limit of quantification, the samples will be diluted and read against the calibration curve.
(§5) The concentration in samples will be determined against the calibration curve by using the following equation: Y=mX+C

[2] = Solubility assay in buffer (pH 1 and pH 6), LC-MS/MS; assay type: physicochemical
Method: as §1, §2, §3
The study will be performed in a 96-well deep well plate by spiking 10 μL stock solutions into 990 μL buffer. Spiked buffer samples will be maintained at room temperature for 2 h. Incubations will be performed in duplicates. The plate will be centrifuged at 4000 rpm for 20 min at room temperature to enable the insoluble particles/precipitates to settle down. The supernatant will be diluted 1:1 with acetonitrile and internal standard will be added. The samples will be analyzed using LC-MS/MS.
as §4, §5

[3] = Mouse PK study with Compound 24; details: in vivo; for bioavailability: nominal doses and AUClast of IV (1 mg/kg) and PO (10 mg/kg) used
Text: Mouse PK Study with Compound 24 Summary of Pharmacokinetic Parameters of Compound 24 and Tegavivint: […]

[4] = Pharmacokinetics of Compound 10 (prodrug) and estimation of Compound 1 (parent) following oral and intravenous administration; assay type: in vivo, Male Sprague Dawley Rats; details: for Vd / AUC(0-inf) / AUC(0-t) / clearance / half-life / MRT last: male, Sprague Dawley; for Vd: rat, plasma, iv, 1.28 mg/kg; for AUC(0-inf) / AUC(0-t) / clearance / half-life / MRT last / AUCExtra / Co: rat plasma; for AUC(0-inf) / AUC(0-t) / clearance / half-life / MRT last / AUCExtra: IV 1.28 mg/kg sodium salt of compound 10; for MRT last: read-out: MRT0-last; for Co: IV 1.28 mg/kg sodium salt of compound 10, mean concentration data
Text: Pharmacokinetics of Compound 10 (Prodrug) and Estimation of Compound 1 (Parent) Following Oral and Intravenous Administration in Male Sprague Dawley Rats

[5] = aqueous buffer pH 1, simulated gastric fluid, kinetic from dmso stock, pH 1, room temperature
[6] = aqueous buffer pH 6, aqueous buffer, kinetic from dmso stock, pH 6, room temperature
[7] = IV 1 mg/kg Compound 24, read-out: T½ (converted)
[8] = PO 10 mg/kg Compound 24, read-out: C0/Cmax
[9] = IV 1.28 mg/kg sodium salt of compound 10, read-out: Vd
[10] = IV 1.28 mg/kg sodium salt of compound 10, read-out: Vdss

- % Compound remaining at 120 min ([1]; pH 1, 37° C.): 96%
- % Compound remaining at 120 min ([1]; pH 6, 37° C.): 101%
- solubility at 2 h [2, 5]: < 0.78 µM
- solubility at 2 h [2, 6]: > 100 µM
Structure (SMILES): C[C@@H]1C[C@H](C)CN(S(=O)(=O)c2ccc3c(c2)C(=NO)c2cc(S(=O)(=O)N4C[C@H](C)C[C@H](C)C4)ccc2C3=NOP(=O)(O)O)C1 [Compound 4, ((((9E,10E)-3,6-bis(((3R,5S)-3,5-dimethylpiperidin-1-yl)sulfonyl)-10-(hydroxyimino)-anthracen-9(10H)-ylidene)amino)oxy)phosphonic acid]

- % Compound remaining at 120 min ([1]; pH 1, 37° C.): 90%
- % Compound remaining at 120 min ([1]; pH 6, 37° C.): 128%
- solubility at 2 h ([2]; pH 1, room temperature): <0.78 µM
- solubility at 2 h ([2]; pH 6, room temperature): <0.78 µM
Structure (SMILES): CC(C)[C@H](N)C(=O)OCON=C1c2cc(S(=O)(=O)N3C[C@H](C)C[C@H](C)C3)ccc2C(=NO)c2ccc(S(=O)(=O)N3C[C@H](C)C[C@H](C)C3)cc21.Cl [Compound 43, ((((9E,10E)-2,7-bis(((3R,5S)-3,5-dimethylpiperidin-1-yl)sulfonyl)-10-(hydroxyimino)anthracen-9(10H)-ylidene)amino)-oxy)methylvalinate hydrochloride]

- AUC(0-inf) ([3]; IV 1 mg/kg Compound 24): 0.873 µg·h/mL
- AUC(0-t) ([3]; IV 1 mg/kg Compound 24): 0.752 µg·h/mL
- MRT inf ([3]; IV 1 mg/kg Compound 24): 10.5 h
- half-life [3, 7]: 9.39 h
- AUC(0-t) ([3]; PO 10 mg/kg Compound 24): 0.229 µg·h/mL
- Tmax ([3]; PO 10 mg/kg Compound 24): 1 h
- Cmax [3, 8]: 0.0525 µg/mL
- bioavailability [3]: 3%
- Vd [4, 9]: 16.9 L/kg
- Vd [4, 10]: 15 L/kg
- AUC(0-inf) [4]: 0.446 µg·h/mL
- AUC(0-t) [4]: 0.396 µg·h/mL
- clearance [4]: 2.9 L/h/kg
- half-life [4]: 4 h
- MRT last [4]: 3.56 h
- AUCExtra [4]: 11.19%
- Co [4]: 116.31 ng/mL
Structure (SMILES): C[C@@H]1C[C@H](C)CN(S(=O)(=O)c2ccc3c(c2)C(=NO)c2cc(S(=O)(=O)N4C[C@H](C)C[C@H](C)C4)ccc2C3=NO)C1 [Compound 1, (9E,10E)-2,7-bis(((3R,5S)-3,5-dimethylpiperidin-1-yl)sulfonyl)anthracene-9,10-dione dioxime, reference compound]

- % Compound remaining at 120 min ([1]; pH 1, 37° C.): 85%
- % Compound remaining at 120 min ([1]; pH 6, 37° C.): 96%
- solubility at 2 h [2, 5]: < 0.78 µM
- solubility at 2 h [2, 6]: < 0.78 µM
Structure (SMILES): CCC(C)C(N)C(=O)OCON=C1c2cc(S(=O)(=O)N3C[C@H](C)C[C@H](C)C3)ccc2C(=NO)c2ccc(S(=O)(=O)N3C[C@H](C)C[C@H](C)C3)cc21 (stereo partly drawn) [Compound 38, ((((9E,10E)-2,7-bis(((3S,5R)-3,5-dimethylpiperidin-1-yl)sulfonyl)-10-(hydroxyimino)anthracen-9(10H)-ylidene)amino)oxy)methyl 2-amino-3-methylpentanoate]

- AUC(0-inf) ([3]; IV 1 mg/kg Compound 24): 0.379 µg·h/mL
- AUC(0-t) ([3]; IV 1 mg/kg Compound 24): 0.376 µg·h/mL
- MRT inf ([3]; IV 1 mg/kg Compound 24): 0.476 h
- clearance ([3]; IV 1 mg/kg Compound 24): 2.63 L/h/kg
- Cmax ([3]; IV 1 mg/kg Compound 24, C0 back extrapolated concentration at time zero): 2.37 µg/mL
- half-life [3, 7]: 0.748 h
- Vd ([3]; IV 1 mg/kg Compound 24, read-out: VSS): 1.25 L/kg
- AUC(0-inf) ([3]; PO 10 mg/kg Compound 24): 0.0782 µg·h/mL
- AUC(0-t) ([3]; PO 10 mg/kg Compound 24): 0.0605 µg·h/mL
- MRT inf ([3]; PO 10 mg/kg Compound 24): 1.36 h
- Tmax ([3]; PO 10 mg/kg Compound 24): 0.25 h
- Cmax [3, 8]: 0.0607 µg/mL
- half-life ([3]; PO 10 mg/kg Compound 24, read-out: T½ (converted)): 0.873 h
- bioavailability [3]: 2%
- % Compound remaining at 120 min ([1]; pH 1, 37° C.): 101%
- % Compound remaining at 120 min ([1]; pH 6, 37° C.): 93%
- solubility at 2 h [2, 5]: > 100 µM
- solubility at 2 h [2, 6]: < 0.78 µM
Structure (SMILES): CCC(C)C(N)C(=O)OCON=C1c2ccc(S(=O)(=O)N3C[C@H](C)C[C@H](C)C3)cc2C(=NO)c2cc(S(=O)(=O)N3C[C@H](C)C[C@H](C)C3)ccc21 (stereo partly drawn) [Compound 24, ((((9E,10E)-3,6-bis(((3R,5S)-3,5-dimethylpiperidin-1-yl)sulfonyl)-10-(hydroxyimino)anthracen-9(10H)-ylidene)amino)oxy)methyl 2-amino-3-methylpentanoate dihydrochloride]

- % Compound remaining at 120 min ([1]; pH 1, 37° C.): 101%
- % Compound remaining at 120 min ([1]; pH 6, 37° C.): 79%
- solubility at 2 h [2, 5]: < 0.78 µM
- solubility at 2 h [2, 6]: < 0.78 µM
- Vd [4, 9]: 3.31 L/kg
- Vd [4, 10]: 0.39 L/kg
- AUC(0-inf) [4]: 0.885 µg·h/mL
- AUC(0-t) [4]: 0.869 µg·h/mL
- clearance [4]: 1.45 L/h/kg
- half-life [4]: 1.59 h
- MRT last [4]: 0.15 h
- AUCExtra [4]: 1.81%
- Co [4]: 11437.00 ng/mL
Structure (SMILES): C[C@@H]1C[C@H](C)CN(S(=O)(=O)c2ccc3c(c2)C(=NO)c2cc(S(=O)(=O)N4C[C@H](C)C[C@H](C)C4)ccc2C3=NOCOP(=O)(O)O)C1 [Compound 10, ((((9E,10E)-3,6-bis(((3S,5R)-3,5-dimethylpiperidin-1-yl)sulfonyl)-10-(hydroxyimino)anthracen-9(10H)-ylidene)amino)-oxy)methyl dihydrogen phosphate]

- % Compound remaining at 120 min ([1]; pH 1, 37° C.): 98%
- % Compound remaining at 120 min ([1]; pH 6, 37° C.): 76%
- solubility at 2 h ([2]; pH 1, room temperature): <0.78 µM
- solubility at 2 h ([2]; pH 6, room temperature): <0.78 µM
Structure (SMILES): CC(C)C[C@H](N)C(=O)OCON=C1c2ccc(S(=O)(=O)N3C[C@H](C)C[C@H](C)C3)cc2C(=NO)c2cc(S(=O)(=O)N3C[C@H](C)C[C@H](C)C3)ccc21.Cl [Compound 41, ((((9E,10E)-3,6-bis(((3R,5S)-3,5-dimethylpiperidin-1-yl)sulfonyl)-10-(hydroxyimino)anthracen-9(10H)-ylidene)amino)oxy)methyl leucinate hydrochloride]

- % Compound remaining at 120 min ([1]; pH 1, 37° C.): 93%
- % Compound remaining at 120 min ([1]; pH 6, 37° C.): 97%
- solubility at 2 h ([2]; pH 1, room temperature): <0.78 µM
- solubility at 2 h ([2]; pH 6, room temperature): <0.78 µM
Structure (SMILES): C[C@@H]1C[C@H](C)CN(S(=O)(=O)c2ccc3c(c2)C(=NOCOC(=O)C(N)C(C)(C)C)c2cc(S(=O)(=O)N4C[C@H](C)C[C@H](C)C4)ccc2C3=NO)C1 (stereo partly drawn) [Compound 46, ((((9E,10E)-2,7-bis(((3R,5S)-3,5-dimethyl-piperidin-1-yl)sulfonyl)-10-(hydroxyimino)anthracen-9(10H)-ylidene)amino)oxy)methyl-2-amino-3,3-dimethylbutanoate]
